Experimental data as given in ChEMBL document CHEMBL1201862, “PubChem BioAssay data set” (2004).
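A five-concentration, 48-hour dose response in 96-well plates underlies each endpoint, interpolated linearly between surrounding concentrations. GI50 is the concentration that inhibits growth by half.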 Calls of active or inactive are those of the source. Rule as the data show it: active = GI50 up to about 1.1 µM and inactive = higher.

Assays:
Assay in all cases: NCI tumour cell line growth inhibition, 48 h
[1] = test system: A549
[2] = test system: HOP-62
[3] = test system: SNB-19
[4] = test system: 786-0
[5] = test system: SNB-75
[6] = test system: Hs-578T
[7] = test system: U-251
[8] = test system: DU-145
[9] = test system: LOX IMVI
[10] = test system: NCI-H522
[11] = test system: NCI-H23
[12] = test system: HT-29
[13] = test system: M14
[14] = test system: Malme-3M
[15] = test system: MDA-MB-435
[16] = test system: NCI-H226
[17] = test system: RPMI-8226
[18] = test system: HOP-92
[19] = test system: MDA-N

SMILES	GI50 [1]	GI50 [2]	GI50 [3]	GI50 [4]	GI50 [5]	GI50 [6]	GI50 [7]	GI50 [8]	GI50 [9]	GI50 [10]	GI50 [11]	GI50 [12]	GI50 [13]	GI50 [14]	GI50 [15]	GI50 [16]	GI50 [17]	GI50 [18]	GI50 [19]
CCOC(=O)C1(C/C=C\CBr)CCCC1=O (stereo unspecified)	30.6 µM (inactive)	29.1 µM (inactive)	38.3 µM (inactive)	32.3 µM (inactive)	27 µM (inactive)	55.6 µM (inactive)	20.1 µM (inactive)	27.5 µM (inactive)	15.7 µM (inactive)	21.4 µM (inactive)	23.8 µM (inactive)	29.3 µM (inactive)	21.7 µM (inactive)	48.1 µM (inactive)	22.1 µM (inactive)	20.8 µM (inactive)			
S=c1sc2ccccc2n1CN1CCN(Cc2ccccc2)CC1	> 100 µM (inactive)	> 100 µM (inactive)	> 100 µM (inactive)	> 100 µM (inactive)	> 100 µM (inactive)	> 100 µM (inactive)	> 100 µM (inactive)	> 100 µM (inactive)	> 100 µM (inactive)	> 100 µM (inactive)	> 100 µM (inactive)	> 100 µM (inactive)	> 100 µM (inactive)		> 100 µM (inactive)	> 100 µM (inactive)	> 100 µM (inactive)	> 100 µM (inactive)	
O/N=N/c1ccc(Sc2ccc(/N=N/O)cn2)nc1	> 100 µM (inactive)	> 100 µM (inactive)	> 100 µM (inactive)	> 100 µM (inactive)	> 100 µM (inactive)	> 100 µM (inactive)	> 100 µM (inactive)	> 100 µM (inactive)		> 100 µM (inactive)	> 100 µM (inactive)	> 100 µM (inactive)	> 100 µM (inactive)			> 100 µM (inactive)			> 100 µM (inactive)
CCCCI(O)OS(=O)(=O)c1ccc(C)cc1	66.2 µM (inactive)	> 100 µM (inactive)	> 100 µM (inactive)	> 100 µM (inactive)	73.5 µM (inactive)	> 100 µM (inactive)	> 100 µM (inactive)	> 100 µM (inactive)	13.9 µM (inactive)	22.5 µM (inactive)	> 100 µM (inactive)	> 100 µM (inactive)	> 100 µM (inactive)		> 100 µM (inactive)	> 100 µM (inactive)	50.6 µM (inactive)	> 100 µM (inactive)	
CCOC(=O)c1c(N2CCCC2)nsc1Nc1ccccc1	> 100 µM (inactive)		> 100 µM (inactive)	> 100 µM (inactive)	> 100 µM (inactive)	60 µM (inactive)		> 100 µM (inactive)	> 100 µM (inactive)		> 100 µM (inactive)	> 100 µM (inactive)	> 100 µM (inactive)	> 100 µM (inactive)		> 100 µM (inactive)	> 100 µM (inactive)	40.6 µM (inactive)	> 100 µM (inactive)
COC1=CC(=O)C2[C@H]3Cc4ccccc4[C@H]3C2(C)C1=O (stereo partly specified)	> 100 µM (inactive)	> 100 µM (inactive)	> 100 µM (inactive)	> 100 µM (inactive)	16.9 µM (inactive)		> 100 µM (inactive)		> 100 µM (inactive)	68.4 µM (inactive)	> 100 µM (inactive)	> 100 µM (inactive)	> 100 µM (inactive)	> 100 µM (inactive)		81.8 µM (inactive)	> 100 µM (inactive)	> 100 µM (inactive)	
c1cncc(C2N3CCCCC3[C@@H]3c4[nH]c5ccccc5c4CCN23)c1 (stereo partly specified)	> 100 µM (inactive)	> 100 µM (inactive)	> 100 µM (inactive)	> 100 µM (inactive)	> 100 µM (inactive)		> 100 µM (inactive)				> 100 µM (inactive)	> 100 µM (inactive)	> 100 µM (inactive)				> 100 µM (inactive)	> 100 µM (inactive)	
CCNC(=S)NNC(=O)c1csc(NC(=S)NC2CCCCC2)n1	16.9 µM (inactive)	10.6 µM (inactive)	37.5 µM (inactive)	6.52 µM (inactive)			9.95 µM (inactive)	12.1 µM (inactive)	5.83 µM (inactive)		22.8 µM (inactive)	> 100 µM (inactive)	11.6 µM (inactive)		4.1 µM (inactive)	> 100 µM (inactive)	11.7 µM (inactive)		2.9 µM (inactive)
C#CC1(O)CCC2C3CCc4cc(Oc5nc(F)nc(-c6c7ccccc7c7sc8ccccc8n67)n5)ccc4C3CC[C@@]21C (stereo partly specified)	> 100 µM (inactive)	> 100 µM (inactive)	36.3 µM (inactive)	> 100 µM (inactive)	22.1 µM (inactive)		75.7 µM (inactive)			14.4 µM (inactive)	33.3 µM (inactive)	> 100 µM (inactive)	26.1 µM (inactive)	> 100 µM (inactive)		> 100 µM (inactive)	> 100 µM (inactive)	> 100 µM (inactive)	
Oc1c(NCn2nc(CCCCCCCCc3nn(CNc4ccc5ccccc5c4O)c(=S)o3)oc2=S)ccc2ccccc12	44.4 µM (inactive)	94.2 µM (inactive)	> 100 µM (inactive)	63.2 µM (inactive)	> 100 µM (inactive)		86.5 µM (inactive)	> 100 µM (inactive)		49 µM (inactive)	97.5 µM (inactive)	73.6 µM (inactive)	34.8 µM (inactive)	75.2 µM (inactive)	12.5 µM (inactive)	> 100 µM (inactive)	46.8 µM (inactive)	> 100 µM (inactive)	17.2 µM (inactive)
N/N=C1\C(=O)N(C2CCCCCC2)C(=O)C1C(=O)NC1CCCCCC1 (stereo unspecified)	49.1 µM (inactive)	> 10 µM (inactive)	35.6 µM (inactive)	29.6 µM (inactive)			15.8 µM (inactive)			23.2 µM (inactive)	22.4 µM (inactive)	32.1 µM (inactive)	35 µM (inactive)	24.7 µM (inactive)				21.3 µM (inactive)	
Cc1cc(S(=O)(=O)Nc2nc(N)nc(N(C)C)n2)c(SC(C(=O)O)c2ccccc2)cc1Cl (stereo unspecified)	> 10 µM (inactive)	> 10 µM (inactive)	> 10 µM (inactive)	> 10 µM (inactive)	> 10 µM (inactive)	> 10 µM (inactive)	> 10 µM (inactive)	> 10 µM (inactive)	> 10 µM (inactive)	> 10 µM (inactive)	> 10 µM (inactive)	> 10 µM (inactive)	> 10 µM (inactive)	> 10 µM (inactive)		> 10 µM (inactive)	> 10 µM (inactive)	> 10 µM (inactive)	> 10 µM (inactive)
CN1C(=O)C(O)CC1c1ccccc1C(F)(F)F (stereo unspecified)	> 100 µM (inactive)	> 100 µM (inactive)	> 100 µM (inactive)	> 100 µM (inactive)	> 100 µM (inactive)		> 100 µM (inactive)	> 100 µM (inactive)	> 100 µM (inactive)	> 100 µM (inactive)	> 100 µM (inactive)	> 100 µM (inactive)	> 100 µM (inactive)	> 100 µM (inactive)	> 100 µM (inactive)	> 100 µM (inactive)	> 100 µM (inactive)	> 100 µM (inactive)	> 100 µM (inactive)
C/C(CN1C(=O)c2ccccc2C1=O)=N\NS(=O)(=O)c1ccc(C)cc1	> 100 µM (inactive)	> 100 µM (inactive)	> 100 µM (inactive)	> 100 µM (inactive)	> 100 µM (inactive)		> 100 µM (inactive)			> 100 µM (inactive)	> 100 µM (inactive)	> 100 µM (inactive)	> 100 µM (inactive)	> 100 µM (inactive)		> 100 µM (inactive)	> 100 µM (inactive)		
CN(C)C(=S)/N=c1\ssc(=S)n1Cc1ccccn1	3.85 µM (inactive)	10.6 µM (inactive)	6.55 µM (inactive)	4.24 µM (inactive)	4.48 µM (inactive)		3.89 µM (inactive)		5.06 µM (inactive)	0.859 µM (active)	3.62 µM (inactive)	2.78 µM (inactive)	2.55 µM (inactive)	2.49 µM (inactive)		6.5 µM (inactive)	2.31 µM (inactive)	4.12 µM (inactive)	
CC(CO)CCC(O)C(C)(O)C1CCC2(O)C3=CC(=O)C4CC(O)C(O)CC4(C)C3CCC12C (stereo unspecified)	> 100 µM (inactive)	> 100 µM (inactive)	> 100 µM (inactive)	> 100 µM (inactive)	84.3 µM (inactive)		> 100 µM (inactive)	> 100 µM (inactive)	> 100 µM (inactive)	> 100 µM (inactive)	> 100 µM (inactive)	> 100 µM (inactive)	> 100 µM (inactive)	> 100 µM (inactive)	> 100 µM (inactive)	> 100 µM (inactive)	> 100 µM (inactive)	> 100 µM (inactive)	> 100 µM (inactive)
CC(C)(C)OC(=O)[C@H]1CCC(=S)N1Cc1ccccc1	> 100 µM (inactive)		> 100 µM (inactive)	> 100 µM (inactive)	> 100 µM (inactive)		> 100 µM (inactive)	> 100 µM (inactive)	> 100 µM (inactive)	> 100 µM (inactive)	> 100 µM (inactive)		> 100 µM (inactive)	> 100 µM (inactive)	> 100 µM (inactive)	> 100 µM (inactive)	> 100 µM (inactive)	> 100 µM (inactive)	> 100 µM (inactive)
C/C(=N\O)c1ccc2ccc3ccccc3c2c1	31.8 µM (inactive)	> 100 µM (inactive)	62.8 µM (inactive)	> 100 µM (inactive)	25.5 µM (inactive)	27.6 µM (inactive)	29.8 µM (inactive)	33.3 µM (inactive)	24.5 µM (inactive)	29.9 µM (inactive)	65.3 µM (inactive)	28.3 µM (inactive)	66.5 µM (inactive)	23.1 µM (inactive)	22.2 µM (inactive)	26.4 µM (inactive)	34.6 µM (inactive)		
